# According to patent US20240409585A1, “MACROCYCLIC IMMUNOMODULATORS” (priority 2021, published 2024):
# Numbered stars: 1 amine (or outer) side, 2 acyl side, 3 side chain; on linkers, the order of the positions; unused ones are H or OH. Bridge positions count the residues as written; N and C are the ends. Square brackets hold non-standard residues; d marks the D form. Peptide text beside a SMILES is read from it. * marks the point of attachment. ξ: configuration not given here. Bip(4'-COOH) = N[C@@H](Cc1ccc(-c2ccc(C(=O)O)cc2)cc1)C(=O)O; Ala(morpholin-4-yl) = N[C@@H](CN1CCOCC1)C(=O)O; Phe(4-COOH) = N[C@@H](Cc1ccc(C(=O)O)cc1)C(=O)O; X16 = O=C([C@H](Cc1ccc2cnccc2c1)N[*:1])[*:2]; Bip = N[C@@H](Cc1ccc(-c2ccccc2)cc1)C(=O)O; Phe(3-CN) = N#Cc1cccc(C[C@H](N)C(=O)O)c1; Phe(3-Me) = Cc1cccc(C[C@H](N)C(=O)O)c1; 4Pal = N[C@@H](Cc1ccncc1)C(=O)O; Cha = N[C@@H](CC1CCCCC1)C(=O)O; Ile(3ξ) = CCC(C)[C@H](N)C(=O)O; Thr(3ξ) = CC(O)[C@H](N)C(=O)O; Carboxymethyl = O=C(O)C*; NMeA = CN[C@@H](C)C(=O)O; Orn = NCCC[C@H](N)C(=O)O; Dab = NCC[C@H](N)C(=O)O
# Molecular target: T1, Alexa fluor-647 labeled human PD-L1-Ig binding to Jurkat cell line over-expressing human PD-1 (Homo sapiens, UniProt Q15116)
# T1 construct: expressed in transfected cells; host or cells: Jurkat
# Test: Jurkat-PD-1 Cell Binding High-Content Screening Assay (CBA): Method 3 (Alexa fluor-647 labeled PD-L1-Ig)
# Settings: Jurkat-PD-1 cells, Alexa fluor-647 labeled PD-L1-Ig 177 nM; head μM; read-out: CBA Method 3 μM
# Experimental: Jurkat-PD-1 Cell Binding High-Content Screening Assay (CBA): Method 3
# Alexa fluor-647 was covalently linked to the Ig epitope tag of human PD-L1-Ig and fluorescently labeled PD-L1-Ig was used for the binding studies with a Jurkat cell line over-expressing human PD-1. Briefly, 2.5×10^4 Jurkat-hPD-1 cells were seeded into 384 well plates in 20 μl of RPMI supplemented with 10% fetal calf serum. 12.5 nl of compound was added to cells followed by incubation at 37° C. for 2 hours. Then, 10 ul of Alexa fluor-647 labeled PD-L1-Ig (177 nM final), diluted in RPMI supplemented with 10% fetal calf serum was added to the cells and incubated for 1 hour. Cells were then fixed with 4% paraformaldehyde containing 10 μg/ml Hoechst 33342 and then washed 3× in 100 ul PBS and 100 ul of PBS was added in the final step. Data was collected using the Operetta High Content Imager and the data was analyzed using the columbus software.
# T1 sequence (Q15116 25-288): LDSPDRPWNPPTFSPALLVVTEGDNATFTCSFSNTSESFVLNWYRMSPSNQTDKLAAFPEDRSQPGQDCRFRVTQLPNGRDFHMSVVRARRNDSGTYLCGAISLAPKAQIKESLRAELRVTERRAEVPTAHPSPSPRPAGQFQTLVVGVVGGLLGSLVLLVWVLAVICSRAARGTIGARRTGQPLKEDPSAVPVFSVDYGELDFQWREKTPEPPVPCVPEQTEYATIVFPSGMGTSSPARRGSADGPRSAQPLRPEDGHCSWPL
row,SMILES,IC50 [µM]
1,Cc1cccc(C[C@@H]2NC(=O)[C@H](CC(=O)O)NC(=O)[C@H](Cc3ccc(-c4ccc(C(=O)O)cc4)cc3)NC(=O)[C@H](CN3CCOCC3)NC(=O)CSC[C@@H](C(=O)N[C@@H](CCN)C(N)=O)NC(=O)[C@H](CCC(=O)O)NC(=O)[C@H](C(C)C)NC(=O)[C@H](CC3CCCCC3)NC(=O)[C@H](CC(N)=O)NC(=O)[C@@H](CC(C)C)NC(=O)[C@H](C)N(C)C(=O)[C@H](Cc3ccc(OCC(=O)O)cc3)NC(=O)[C@H](Cc3ccc(-c4ccccc4)cc3)NC(=O)[C@H](Cc3ccc(-c4ccc(C(=O)O)cc4)cc3)NC2=O)c1 [Example 5128] ({CH2CO}-[Ala(morpholin-4-yl)][Bip(4'-COOH)]D[Phe(3-Me)][Bip(4'-COOH)][Bip]Y(Carboxymethyl)[NMeA][dL]N[Cha]VEC[Dab]-NH2; thioether N-14),0.03

# Same assay, conditions: Jurkat-PD-1 cells, Alexa fluor-647 labeled PD-L1-Ig 177 nM; nM; read-out: CBA Method 3
row,SMILES,IC50 [µM]
1,Cc1cccc(C[C@@H]2NC(=O)[C@H](CC(=O)O)NC(=O)[C@H](Cc3ccc(OCC(=O)O)cc3)NC(=O)[C@H](CN3CCOCC3)NC(=O)CSC[C@@H](C(=O)N[C@@H](CCN)C(N)=O)NC(=O)[C@H](CCC(N)=O)NC(=O)[C@H](C(C)C)NC(=O)[C@H](CC3CCCCC3)NC(=O)[C@H](CCN)NC(=O)[C@@H](CC(C)C)NC(=O)[C@H](C)N(C)C(=O)[C@H](CCC(N)=O)NC(=O)[C@H](Cc3ccc(-c4ccccc4)cc3)NC(=O)[C@H](Cc3ccc(OCC(=O)O)cc3)NC2=O)c1 [Example 5224] ({CH2CO}-[Ala(morpholin-4-yl)]Y(Carboxymethyl)D[Phe(3-Me)]Y(Carboxymethyl)[Bip]Q[NMeA][dL][Dab][Cha]VQC[Dab]-NH2; thioether N-14),0.0035

# Molecular target: T2, PE-labeled human PD-L1-Ig binding to Jurkat cell line over-expressing human PD-1 (Jurkat-PD-1) (Homo sapiens, UniProt Q15116)
# T2 construct: expressed in transfected cells; host or cells: Jurkat
# Test: Jurkat-PD-1 Cell Binding High-Content Screening Assay (CBA): Method 1
# Settings: Jurkat-hPD-1 cells, PE-labeled PD-L1-Ig 20 nM final; read-out: Jurkat HPDL1 PD1 IC50 (uM) (Method 1)
# T2 sequence (Q15116 25-288): as above
row,SMILES,IC50 [µM]
1,CC(C)C[C@@H]1NC(=O)[C@H](CCCNC(=N)N)NC(=O)[C@@H](CC(C)C)NC(=O)[C@H](C)N(C)C(=O)[C@H](CCCNC(=N)N)NC(=O)[C@H](Cc2ccc(-c3ccccc3)cc2)NC(=O)[C@H](C(C)C)NC(=O)[C@H](Cc2cccc(C#N)c2)NC(=O)[C@H](CC(=O)O)NC(=O)[C@H](Cc2ccc(O)cc2)NC(=O)[C@H](CC(N)=O)NC(=O)CSC[C@@H](C(=O)N[C@@H](C)C(N)=O)NC(=O)[C@H]([C@@H](C)O)NC(=O)[C@H](C(C)C)NC1=O [Compound 1196] ({CH2CO}-NYD[Phe(3-CN)]V[Bip]R[NMeA][dL]RLVTCA-NH2; thioether N-14),0.24
2,CC[C@H](C)[C@@H]1NC(=O)[C@H](CC(C)C)NC(=O)[C@H](CCCNC(=N)N)NC(=O)[C@@H](CC(C)C)NC(=O)[C@H](C)N(C)C(=O)[C@H](CCCNC(=N)N)NC(=O)[C@H](Cc2ccc(-c3ccccc3)cc2)NC(=O)[C@H](C(C)C)NC(=O)[C@H](Cc2c[nH]c3ccccc23)NC(=O)[C@H](CC(=O)O)NC(=O)[C@H](Cc2ccc(O)cc2)NC(=O)[C@H](Cc2ccccc2)NC(=O)CSC[C@@H](C(=O)N[C@@H](C)C(N)=O)NC(=O)[C@H]([C@@H](C)O)NC1=O [Compound 1118] ({CH2CO}-FYDWV[Bip]R[NMeA][dL]RLITCA-NH2; thioether N-14),0.16
3,CC[C@H](C)[C@@H]1NC(=O)[C@H](Cc2ccc(-c3ccccc3)cc2)NC(=O)[C@H](C(C)C)NC(=O)[C@H](Cc2c[nH]c3ccccc23)NC(=O)[C@H](CC(=O)O)NC(=O)[C@H](Cc2ccc(O)cc2)NC(=O)[C@H](CC(N)=O)NC(=O)CSC[C@@H](C(=O)N[C@@H](C)C(N)=O)NC(=O)[C@H](CO)NC(=O)[C@H](C(C)C)NC(=O)[C@H](CC(C)C)NC(=O)[C@H](CCCCN)NC(=O)[C@@H](CC(C)C)NC(=O)[C@H](C)N(C)C1=O [Compound 1480] ({CH2CO}-NYDWV[Bip]I[NMeA][dL]KLVSCA-NH2; thioether N-14),0.04
4,CC(C)C[C@@H]1NC(=O)[C@H](CCN)NC(=O)[C@@H](CC(C)C)NC(=O)[C@H](C)N(C)C(=O)[C@H](CCCNC(=N)N)NC(=O)[C@H](Cc2ccc(-c3ccccc3)cc2)NC(=O)[C@H](C(C)C)NC(=O)[C@H](Cc2c[nH]c3ccccc23)NC(=O)[C@H](CC(=O)O)NC(=O)[C@H](Cc2ccc(OCC(=O)O)cc2)NC(=O)[C@H](Cc2ccncc2)NC(=O)CSC[C@@H](C(=O)N[C@@H](C)C(N)=O)NC(=O)[C@H]([C@@H](C)O)NC(=O)[C@H](C(C)C)NC1=O [Compound 1443] ({CH2CO}-[4Pal]Y(Carboxymethyl)DWV[Bip]R[NMeA][dL][Dab]LVTCA-NH2; thioether N-14),0.01
5,CCC(C)[C@@H]1NC(=O)[C@H](Cc2ccc(-c3ccccc3)cc2)NC(=O)[C@H](CC(C)C)NC(=O)[C@H](Cc2c[nH]c3ccccc23)NC(=O)[C@H](CC(=O)O)NC(=O)[C@H](Cc2ccc(C(=O)O)cc2)NC(=O)[C@H](Cc2ccc(OCC(=O)O)cc2)NC(=O)CSC[C@@H](C(=O)N[C@@H](CCN)C(N)=O)NC(=O)[C@H]([C@@H](C)O)NC(=O)[C@H](C(C)C)NC(=O)[C@H](CC2CCCCC2)NC(=O)[C@H](CCN)NC(=O)[C@@H](CC(C)C)NC(=O)[C@H](C)N(C)C1=O (stereo partly drawn) [Compound 1926] ({CH2CO}-Y(Carboxymethyl)[Phe(4-COOH)]DWL[Bip][Ile(3ξ)][NMeA][dL][Dab][Cha]VTC[Dab]-NH2; thioether N-14),0.01
6,CC(C)C[C@@H]1NC(=O)[C@H](CCN)NC(=O)[C@@H](CC(C)C)NC(=O)[C@H](C)N(C)C(=O)[C@H](CCCN)NC(=O)[C@H](Cc2ccc(-c3ccccc3)cc2)NC(=O)[C@H](C(C)C)NC(=O)[C@H](Cc2c[nH]c3ccccc23)NC(=O)[C@H](CC(=O)O)NC(=O)[C@H](Cc2ccc(O)cc2)NC(=O)[C@H](Cc2cnc[nH]2)NC(=O)CSC[C@@H](C(=O)N[C@@H](C)C(N)=O)NC(=O)[C@H]([C@@H](C)O)NC(=O)[C@H](C(C)C)NC1=O [Compound 1362] ({CH2CO}-HYDWV[Bip][Orn][NMeA][dL][Dab]LVTCA-NH2; thioether N-14),0.03
7,CCC(C)[C@@H]1NC(=O)[C@H](Cc2ccc(-c3ccccc3)cc2)NC(=O)[C@H](C(C)C)NC(=O)[C@H](Cc2c[nH]c3ccccc23)NC(=O)[C@H](CC(=O)O)NC(=O)[C@H](Cc2ccc(O)cc2)NC(=O)[C@H](Cc2ccc3cnccc3c2)NC(=O)CSC[C@@H](C(=O)N[C@@H](C)C(N)=O)NC(=O)[C@H](C(C)O)NC(=O)[C@H](C(C)C)NC(=O)[C@H](CC2CCCCC2)NC(=O)[C@H](CCN)NC(=O)[C@@H](CC(C)C)NC(=O)[C@H](C)N(C)C1=O (stereo partly drawn) [Compound 2046] ({CH2CO}-[X16]YDWV[Bip][Ile(3ξ)][NMeA][dL][Dab][Cha]V[Thr(3ξ)]CA-NH2; thioether N-14),0.02
8,CC(C)C[C@@H]1NC(=O)CSC[C@@H](C(=O)N[C@@H](C)C(N)=O)NC(=O)[C@H]([C@@H](C)O)NC(=O)[C@H](C(C)C)NC(=O)[C@H](CC(C)C)NC(=O)[C@H](CCN)NC(=O)[C@@H](CC(C)C)NC(=O)[C@H](C)N(C)C(=O)[C@H](CCCNC(=N)N)NC(=O)[C@H](Cc2ccc(-c3ccccc3)cc2)NC(=O)[C@H](C(C)C)NC(=O)[C@H](Cc2c[nH]c3ccccc23)NC(=O)[C@H](CC(=O)O)NC(=O)[C@H](Cc2ccc(O)cc2)NC1=O [Compound 1039] ({CH2CO}-LYDWV[Bip]R[NMeA][dL][Dab]LVTCA-NH2; thioether N-14),0.08
